pEC50: −log10 of the molar value. Read-outs that look alike come from different tables or passages of the source.
Legend:
[1] = system: HCV genotype 1a (H77 strain) replicon in HUH-7 cells; experiment: HCV replicon luciferase reporter assay, genotype 1a; type: cell-based; details: HCV genotype 1a replicon luciferase, 3 days incubation
Summary of the method: (§1)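 Replicon inhibition for both genotypes was measured as Renilla luciferase signal (EnduRen, 7.5 μM final, 2 h) after 3-day, 37° C exposure of replicon-bearing HUH-7 cells in 4% FCS DMEM, 0.5% DMSO. The 1b construct carries S1179I; the 1a H77 construct carries P1496L and S2204I. Twenty-point, 3-fold dilutions were fitted four-parametrically for EC50, and CC50 was taken from multiplexed Cell Titer-Blue.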

[2] = system: HCV genotype 1b (Con1) replicon in HUH-7 cells; experiment: HCV replicon luciferase reporter assay, genotype 1b; type: cell-based; details: HCV genotype 1b replicon luciferase, 3 days incubation
Summary of the method: as §1

[3] = Hepatitis C virus, Huh-7, 72 h, read-out: LE_1a (EC50, range)
[4] = Hepatitis C virus, Huh-7, 72 h, read-out: LE_1b (EC50, range)

Work on `CC[C@@H]1C[C@@H](C)CC/C=C\[C@@H]2C[C@@]2(C(=O)NS(=O)(=O)C2CC2)NC(=O)[C@@H]2C[C@@H](Oc3nccc4c5c(ccc34)N(C)CCO5)CN2C(=O)[C@H]1NC(=O)C(=O)N(C)C` [Compound 5317, N1-((2R,6S,7R,9S,13aS,14aR,16aS,Z)-14a-((cyclopropylsulfonyl)carbamoyl)-7-ethyl-9-methyl-2-((4-methyl-3,4-dihydro-2H-[1,4]oxazino[2,3-f]isoquinolin-7-yl)oxy)-5,16-dioxo-1,2,3,5,6,7,8,9,10,11,13a,14,14a,15,16,16a-hexadecahydrocyclopropa[e]pyrrolo[1,2-a][1,4]diazacyclopentadecin-6-yl)-N2,N2-dimethyloxalamide] yielded a pEC50 [1, 3] of 6.99 to 8.32 and a pEC50 [2, 4] of 6.99 to 8.32.

In the case of `CC[C@@H]1C[C@H](C)CC/C=C\[C@@H]2C[C@@]2(C(=O)NS(=O)(=O)C2CC2)NC(=O)[C@@H]2C[C@@H](Oc3nccc4c5c(ccc34)N(C)CCO5)CN2C(=O)[C@H]1NC(=O)C(=O)N(C)C` [Compound 5318, N1-((2R,6S,7R,9R,13aS,14aR,16aS,Z)-14a-((cyclopropylsulfonyl)carbamoyl)-7-ethyl-9-methyl-2-((4-methyl-3,4-dihydro-2H-[1,4]oxazino[2,3-f]isoquinolin-7-yl)oxy)-5,16-dioxo-1,2,3,5,6,7,8,9,10,11,13a,14,14a,15,16,16a-hexadecahydrocyclopropa[e]pyrrolo[1,2-a][1,4]diazacyclopentadecin-6-yl)-N2,N2-dimethyloxalamide], the pEC50 [1, 3] was > 8.26 and the pEC50 [2, 4] was > 8.26.

Work on `CC[C@@H]1C[C@@H](C)CC/C=C\[C@@H]2C[C@@]2(C(=O)NS(=O)(=O)C2(CF)CC2)NC(=O)[C@@H]2C[C@@H](Oc3nccc4c5c(ccc34)N(C)CCO5)CN2C(=O)[C@H]1NC(=O)OC(C)(C)C(F)(F)F` [Compound 5319, 1,1,1-trifluoro-2-methylpropan-2-yl((2R,6S,7R,9S,13aS,14aR,16aS,Z)-7-ethyl-14a-(((1-(fluoromethyl)cyclopropyl)sulfonyl)carbamoyl)-9-methyl-2-((4-methyl-3,4-dihydro-2H-[1,4]oxazino[2,3-f]isoquinolin-7-yl)oxy)-5,16-dioxo-1,2,3,5,6,7,8,9,10,11,13a,14,14a,15,16,16a-hexadecahydrocyclopropa[e]pyrrolo[1,2-a][1,4]diazacyclopentadecin-6-yl)carbamate] yielded a pEC50 ([1]; read-out: LE_1a (EC50)) of 7.47 and a pEC50 ([2]; read-out: LE_1b (EC50)) of 7.85.

With `C[C@H]1CC/C=C\[C@@H]2C[C@@]2(C(=O)NS(=O)(=O)C2(CF)CC2)NC(=O)[C@@H]2C[C@@H](Oc3nccc4c5c(ccc34)OCCO5)CN2C(=O)[C@@H](NC(=O)OC(C)(C)C(F)(F)F)[C@H](C)C1` [Compound 5322, 1,1,1-trifluoro-2-methylpropan-2-yl((2R,6S,7R,9S,13aS,14aR,16aS,Z)-2-((2,3-dihydro-[1,4]dioxino[2,3-f]isoquinolin-7-yl)oxy)-14a-(((1-(fluoromethyl)cyclopropyl)sulfonyl)carbamoyl)-7,9-dimethyl-5,16-dioxo-1,2,3,5,6,7,8,9,10,11,13a,14,14a,15,16,16a-hexadecahydrocyclopropa[e]pyrrolo[1,2-a][1,4]diazacyclopentadecin-6-yl)carbamate] the pEC50 [1, 3] was > 8.26 and the pEC50 [2, 4] was > 8.26.

In the case of `C[C@@H]1CC/C=C\[C@@H]2C[C@@]2(C(=O)NS(=O)(=O)C2(CF)CC2)NC(=O)[C@@H]2C[C@@H](Oc3nccc4c5c(ccc34)OCCO5)CN2C(=O)[C@@H](NC(=O)OC(C)(C)C(F)(F)F)[C@H](C)C1` [Compound 5323, 1,1,1-trifluoro-2-methylpropan-2-yl((2R,6S,7R,9R,13aS,14aR,16aS,Z)-2-((2,3-dihydro-[1,4]dioxino[2,3-f]isoquinolin-7-yl)oxy)-14a-(((1-(fluoromethyl)cyclopropyl)sulfonyl)carbamoyl)-7,9-dimethyl-5,16-dioxo-1,2,3,5,6,7,8,9,10,11,13a,14,14a,15,16,16a-hexadecahydrocyclopropa[e]pyrrolo[1,2-a][1,4]diazacyclopentadecin-6-yl)carbamate], the pEC50 [1, 3] was > 8.26 and the pEC50 [2, 4] was > 8.26.

`CC[C@@H]1C[C@H](C)CC/C=C\[C@@H]2C[C@@]2(C(=O)NS(=O)(=O)C2(C)CC2)NC(=O)[C@@H]2C[C@@H](Oc3nccc4c5c(ccc34)N(C)CCO5)CN2C(=O)[C@H]1NC(=O)OC(C)(C)C(F)(F)F` [Compound 5326, 1,1,1-trifluoro-2-methylpropan-2-yl((2R,6S,7R,9R,13aS,14aR,16aS,Z)-7-ethyl-9-methyl-2-((4-methyl-3,4-dihydro-2H-[1,4]oxazino[2,3-f]isoquinolin-7-yl)oxy)-14a-(((1-methylcyclopropyl)sulfonyl)carbamoyl)-5,16-dioxo-1,2,3,5,6,7,8,9,10,11,13a,14,14a,15,16,16a-hexadecahydrocyclopropa[e]pyrrolo[1,2-a][1,4]diazacyclopentadecin-6-yl)carbamate] was tested, and the pEC50 [1, 3] was > 8.26 and the pEC50 [2, 4] was > 8.26.

`CC[C@@H]1C[C@H](C)CC/C=C\[C@@H]2C[C@@]2(C(=O)NS(=O)(=O)C2(C)CC2)NC(=O)[C@@H]2C[C@@H](Oc3nccc4c5c(ccc34)N(C)CCO5)CN2C(=O)[C@H]1NC(=O)OC(C)(C)C(C)(F)F` [Compound 5328, 3,3-difluoro-2-methylbutan-2-yl((2R,6S,7R,9R,13aS,14aR,16aS,Z)-7-ethyl-9-methyl-2-((4-methyl-3,4-dihydro-2H-[1,4]oxazino[2,3-f]isoquinolin-7-yl)oxy)-14a-(((1-methylcyclopropyl)sulfonyl)carbamoyl)-5,16-dioxo-1,2,3,5,6,7,8,9,10,11,13a,14,14a,15,16,16a-hexadecahydrocyclopropa[e]pyrrolo[1,2-a][1,4]diazacyclopentadecin-6-yl)carbamate] was tested, and the pEC50 [1, 3] was > 8.26 and the pEC50 [2, 4] was > 8.26.

In the case of `CC[C@@H]1C[C@H](C)CC/C=C\[C@@H]2C[C@@]2(C(=O)NS(=O)(=O)C2(C)CC2)NC(=O)[C@@H]2C[C@@H](Oc3nccc4c5c(ccc34)N(C)CCO5)CN2C(=O)[C@H]1NC(=O)OC(C)(C)C` [Compound 5330, tert-butyl ((2R,6S,7R,9R,13aS,14aR,16aS,Z)-7-ethyl-9-methyl-2-((4-methyl-3,4-dihydro-2H-[1,4]oxazino[2,3-f]isoquinolin-7-yl)oxy)-14a-(((1-methylcyclopropyl)sulfonyl)carbamoyl)-5,16-dioxo-1,2,3,5,6,7,8,9,10,11,13a,14,14a,15,16,16a-hexadecahydrocyclopropa[e]pyrrolo[1,2-a][1,4]diazacyclopentadecin-6-yl)carbamate], the pEC50 [1, 3] was > 8.26 and the pEC50 [2, 4] was > 8.26.

With `CC[C@@H]1C[C@@H](C)CC/C=C\[C@@H]2C[C@@]2(C(=O)NS(=O)(=O)C2(C)CC2)NC(=O)[C@@H]2C[C@@H](Oc3nccc4c5c(ccc34)OCCO5)CN2C(=O)[C@H]1NC(=O)OC(C)(C)C(C)(F)F` [Compound 5331, 3,3-difluoro-2-methylbutan-2-yl((2R,6S,7R,9S,13aS,14aR,16aS,Z)-2-((2,3-dihydro-[1,4]dioxino[2,3-f]isoquinolin-7-yl)oxy)-7-ethyl-9-methyl-14a-(((1-methylcyclopropyl)sulfonyl)carbamoyl)-5,16-dioxo-1,2,3,5,6,7,8,9,10,11,13a,14,14a,15,16,16a-hexadecahydrocyclopropa[e]pyrrolo[1,2-a][1,4]diazacyclopentadecin-6-yl)carbamate] the pEC50 ([1]; Hepatitis C virus, Huh-7, 72 h, read-out: LE_1a (EC50)) was 7.89, the pEC50 [1, 3] was 6.99 to 8.32 and the pEC50 ([2]; Hepatitis C virus, Huh-7, 72 h, read-out: LE_1b (EC50)) was 8.40. For the same compound, the pEC50 [2, 4] was > 8.26.

With `CC[C@@H]1C[C@H](C)CC/C=C\[C@@H]2C[C@@]2(C(=O)NS(=O)(=O)C2(C)CC2)NC(=O)[C@@H]2C[C@@H](Oc3nccc4c5c(ccc34)OCCO5)CN2C(=O)[C@H]1NC(=O)OC(C)(C)C(C)(F)F` [Compound 5332, 3,3-difluoro-2-methylbutan-2-yl((2R,6S,7R,9R,13aS,14aR,16aS,Z)-2-((2,3-dihydro-[1,4]dioxino[2,3-f]isoquinolin-7-yl)oxy)-7-ethyl-9-methyl-14a-(((1-methylcyclopropyl)sulfonyl)carbamoyl)-5,16-dioxo-1,2,3,5,6,7,8,9,10,11,13a,14,14a,15,16,16a-hexadecahydrocyclopropa[e]pyrrolo[1,2-a][1,4]diazacyclopentadecin-6-yl)carbamate] the pEC50 [1, 3] was > 8.26 and the pEC50 [2, 4] was > 8.26.

Work on `CC[C@@H]1C[C@@H](C)CC/C=C\[C@@H]2C[C@@]2(C(=O)NS(=O)(=O)C2(C)CC2)NC(=O)[C@@H]2C[C@@H](Oc3nccc4c5c(ccc34)OCCO5)CN2C(=O)[C@H]1NC(=O)OC(C)(C)C(F)(F)F` [Compound 5333, 1,1,1-trifluoro-2-methylpropan-2-yl((2R,6S,7R,9S,13aS,14aR,16aS,Z)-2-((2,3-dihydro-[1,4]dioxino[2,3-f]isoquinolin-7-yl)oxy)-7-ethyl-9-methyl-14a-(((1-methylcyclopropyl)sulfonyl)carbamoyl)-5,16-dioxo-1,2,3,5,6,7,8,9,10,11,13a,14,14a,15,16,16a-hexadecahydrocyclopropa[e]pyrrolo[1,2-a][1,4]diazacyclopentadecin-6-yl)carbamate] yielded a pEC50 [1, 3] of 6.99 to 8.32 and a pEC50 [2, 4] of 6.99 to 8.32.

In the case of `CC[C@@H]1C[C@H](C)CC/C=C\[C@@H]2C[C@@]2(C(=O)NS(=O)(=O)C2(C)CC2)NC(=O)[C@@H]2C[C@@H](Oc3nccc4c5c(ccc34)OCCO5)CN2C(=O)[C@H]1NC(=O)OC(C)(C)C(F)(F)F` [Compound 5334, 1,1,1-trifluoro-2-methylpropan-2-yl((2R,6S,7R,9R,13aS,14aR,16aS,Z)-2-((2,3-dihydro-[1,4]dioxino[2,3-f]isoquinolin-7-yl)oxy)-7-ethyl-9-methyl-14a-(((1-methylcyclopropyl)sulfonyl)carbamoyl)-5,16-dioxo-1,2,3,5,6,7,8,9,10,11,13a,14,14a,15,16,16a-hexadecahydrocyclopropa[e]pyrrolo[1,2-a][1,4]diazacyclopentadecin-6-yl)carbamate], the pEC50 [1, 3] was > 8.26 and the pEC50 [2, 4] was > 8.26.

— US9499550B2 (BRISTOL-MYERS SQUIBB COMPANY, priority 2012, dated 2016)
